Assay results published in patent publication US20240158446A1, “CYCLIC COMPOUND HAVING SELECTIVE INHIBITORY ACTION ON KRAS OVER HRAS AND NRAS” (CHUGAI SEIYAKU KABUSHIKI KAISHA, priority 2021, published 2024).

Columns and labels:
[1] = target: GDP-bound NRAS wild-type protein (Homo sapiens, UniProt P01111); assay: Binding to NRAS by surface plasmon resonance (SPR), Single Cycle Kinetics; details: SPR, GDP-bound NRAS wild-type protein vs GDP-bound KRAS wild-type protein
[2] = target: GDP-bound HRAS wild-type protein (Homo sapiens, UniProt P01112); assay: Binding to HRAS by surface plasmon resonance (SPR), Single Cycle Kinetics; details: SPR, GDP-bound HRAS wild-type protein vs GDP-bound KRAS wild-type protein
[3] = system: human lung cancer strain NCI-H441;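 further: cell proliferation inhibition after four days measured by CellTiter-Glo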
[4] = target: GDP-bound KRAS wild-type protein (Homo sapiens, UniProt P01116); assay: Binding to KRAS by surface plasmon resonance (SPR), Single Cycle Kinetics; details: SPR, Single Cycle Kinetics, GDP-bound KRAS wild-type protein; read-out: KRAS KD
Chain of GDP-bound KRAS wild-type protein (P01116 whole entry): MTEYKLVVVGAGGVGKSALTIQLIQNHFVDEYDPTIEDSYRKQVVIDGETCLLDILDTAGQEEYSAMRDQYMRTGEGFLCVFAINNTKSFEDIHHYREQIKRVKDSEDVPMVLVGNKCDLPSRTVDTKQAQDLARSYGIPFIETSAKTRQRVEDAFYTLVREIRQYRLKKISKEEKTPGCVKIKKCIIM

Chain of GDP-bound NRAS wild-type protein (P01111 whole entry): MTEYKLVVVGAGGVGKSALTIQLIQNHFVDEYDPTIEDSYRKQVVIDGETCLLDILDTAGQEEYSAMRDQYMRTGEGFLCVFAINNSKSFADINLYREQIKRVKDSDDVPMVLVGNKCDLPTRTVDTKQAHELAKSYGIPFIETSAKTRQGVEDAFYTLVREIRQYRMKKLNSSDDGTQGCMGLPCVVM
Chain of GDP-bound HRAS wild-type protein (P01112 whole entry): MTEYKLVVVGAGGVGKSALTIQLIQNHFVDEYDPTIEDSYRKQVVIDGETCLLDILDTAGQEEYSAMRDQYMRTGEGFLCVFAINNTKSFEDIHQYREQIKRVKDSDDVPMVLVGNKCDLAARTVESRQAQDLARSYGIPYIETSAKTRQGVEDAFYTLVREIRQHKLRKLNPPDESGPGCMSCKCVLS

SMILES	IC50 [3] [nM]	Kd [4] [nM]	NRAS/KRAS (ratio of KD value for NRAS to KD value for KRAS) [1]	HRAS/KRAS (ratio of KD value for HRAS to KD value for KRAS) [2]
CC[C@H](C)[C@@H]1NC(=O)[C@H](CC(C)C)N(C)C(=O)C[C@@H](C(=O)N(C)C)N(C)C(=O)[C@H](C2CCCC2)N(C)C(=O)C2(CC(C)(C)C2)NC(=O)[C@@H]2C[C@H](C)CN2C(=O)[C@H](CCc2ccc(C(F)(F)F)c(OC)c2)NC(=O)CN(C)C(=O)[C@H](Cc2ccc(C)cc2)N2CC/C=C\C[C@@H](C2=O)N(C)C(=O)[C@@H]2CCCN2C1=O [PP2409]	31.9	0.48	A (a compound having 10 or more and less than 20 is denoted as A)	B (a compound having 3 or more and less than 10 is denoted as B)
CC[C@H](C)[C@@H]1NC(=O)[C@H](CC(C)C)N(C)C(=O)C[C@@H](C(=O)N(C)CC)N(C)C(=O)[C@H](C2CCCC2)N(C)C(=O)C2(CC(C)(C)C2)NC(=O)[C@@H]2C[C@H](C)CN2C(=O)[C@H](CCc2ccc(C(F)(F)F)c(OC)c2)NC(=O)CN(C)C(=O)[C@H](Cc2ccc(C)cc2)N2CC/C=C\C[C@@H](C2=O)N(C)C(=O)[C@@H]2CCCN2C1=O [PP2410]	108	1.1	A (a compound having 10 or more and less than 20 is denoted as A)	A (a compound having 10 or more and less than 20 is denoted as A)
CCO[C@H](C)[C@@H]1NC(=O)[C@H](CC(C)C)N(C)C(=O)C[C@@H](C(=O)N(C)C)N(C)C(=O)[C@H](C2CCCC2)N(C)C(=O)C2(CC(C)(C)C2)NC(=O)[C@@H]2C[C@H](C)CN2C(=O)[C@H](CCc2ccc(C(F)(F)F)c(OC)c2)NC(=O)CN(C)C(=O)[C@H](Cc2ccc(C)cc2)N2CC/C=C\C[C@@H](C2=O)N(C)C(=O)CN(C)C1=O [PP2412]	21	0.15	A (a compound having 10 or more and less than 20 is denoted as A)	B (a compound having 3 or more and less than 10 is denoted as B)
CCCO[C@H](C)[C@@H]1NC(=O)[C@H](CC(C)C)N(C)C(=O)C[C@@H](C(=O)N(C)C)N(C)C(=O)[C@H](C2CCCC2)N(C)C(=O)C2(CC(C)(C)C2)NC(=O)[C@@H]2C[C@H](C)CN2C(=O)[C@H](CCc2ccc(C(F)(F)F)c(OC)c2)NC(=O)CN(C)C(=O)[C@H](Cc2ccc(C)cc2)N2CC/C=C\C[C@@H](C2=O)N(C)C(=O)CN(C)C1=O [PP2415]	10.3	0.093	AA (a compound having 20 or more is denoted as AA)	A (a compound having 10 or more and less than 20 is denoted as A)
CCCO[C@H](C)[C@@H]1NC(=O)[C@H](CC(C)C)N(C)C(=O)C[C@@H](C(=O)N(C)CC)N(C)C(=O)[C@H](C2CCCC2)N(C)C(=O)C2(CC(C)(C)C2)NC(=O)[C@@H]2C[C@H](C)CN2C(=O)[C@H](CCc2ccc(C(F)(F)F)c(OC)c2)NC(=O)CN(C)C(=O)[C@H](Cc2ccc(C)cc2)N2CC/C=C\C[C@@H](C2=O)N(C)C(=O)CN(C)C1=O [PP2416]	33.1	0.29	A (a compound having 10 or more and less than 20 is denoted as A)	B (a compound having 3 or more and less than 10 is denoted as B)
CCO[C@H](C)[C@@H]1NC(=O)[C@H](CC(C)C)N(C)C(=O)C[C@@H](C(=O)N(C)C)N(C)C(=O)[C@H](C2CCCC2)N(C)C(=O)C2(CC(C)(C)C2)NC(=O)[C@@H]2C[C@H](C)CN2C(=O)[C@H](CCc2ccc(C(F)(F)F)c(OC)c2)NC(=O)CN(C)C(=O)[C@H](Cc2ccc(C)cc2)N2CC/C=C\C[C@@H](C2=O)N(C)C(=O)[C@@H]2CCCN2C1=O [PP2418]	132	0.97	A (a compound having 10 or more and less than 20 is denoted as A)	B (a compound having 3 or more and less than 10 is denoted as B)
CCO[C@H](C)[C@@H]1NC(=O)[C@H](CC(C)C)N(C)C(=O)C[C@@H](C(=O)N(C)CC)N(C)C(=O)[C@H](C2CCCC2)N(C)C(=O)C2(CC(C)(C)C2)NC(=O)[C@@H]2C[C@H](C)CN2C(=O)[C@H](CCc2ccc(C(F)(F)F)c(OC)c2)NC(=O)CN(C)C(=O)[C@H](Cc2ccc(C)cc2)N2CC/C=C\C[C@@H](C2=O)N(C)C(=O)[C@@H]2CCCN2C1=O [PP2419]	125	2	A (a compound having 10 or more and less than 20 is denoted as A)	A (a compound having 10 or more and less than 20 is denoted as A)

Further lines, with some results ahead:

IC50 [3] [nM]	Kd [4] [nM]	SMILES	NRAS/KRAS (ratio of KD value for NRAS to KD value for KRAS) [1]	HRAS/KRAS (ratio of KD value for HRAS to KD value for KRAS) [2]
60.1	0.5	CCOC[C@H]1C(=O)N[C@@H]([C@@H](C)CC)C(=O)N(C)CC(=O)N(C)[C@H]2C/C=C\CCN(C2=O)[C@@H](Cc2ccc(C)cc2)C(=O)N(C)CC(=O)N[C@@H](CCc2cc(F)c(C(F)(F)F)c(F)c2)C(=O)N2C[C@@H](C)C[C@H]2C(=O)NC2(CC(C)(C)C2)C(=O)N(C)[C@@H](C2CCCC2)C(=O)N(C)[C@H](C(=O)N(CC)CC)CC(=O)N1C [PP2407]	A (a compound having 10 or more and less than 20 is denoted as A)	A (a compound having 10 or more and less than 20 is denoted as A)
21.3	0.23	CCOC[C@H]1C(=O)N[C@@H]([C@@H](C)CC)C(=O)N(C)CC(=O)N(C)[C@H]2C/C=C\CCN(C2=O)[C@@H](Cc2ccc(C)cc2)C(=O)N(C)CC(=O)N[C@@H](CCc2cc(F)c(C(F)(F)F)c(F)c2)C(=O)N2C[C@H](OCC)C[C@H]2C(=O)NC2(CC(C)(C)C2)C(=O)N(C)[C@@H](C2CCCC2)C(=O)N(C)[C@H](C(=O)N(CC)CC)CC(=O)N1C [PP2408]	A (a compound having 10 or more and less than 20 is denoted as A)	A (a compound having 10 or more and less than 20 is denoted as A)
91.4	1	CC[C@H](C)[C@@H]1NC(=O)[C@H](CC(C)C)N(C)C(=O)C[C@@H](C(=O)N(C)CC)N(C)C(=O)[C@H](C2CCCC2)N(C)C(=O)C2(CC(C)(C)C2)NC(=O)[C@@H]2C[C@H](C)CN2C(=O)[C@H](CCc2cc(F)c(C(F)(F)F)c(F)c2)NC(=O)CN(C)C(=O)[C@H](Cc2ccc(C)cc2)N2CC/C=C\C[C@@H](C2=O)N(C)C(=O)[C@@H]2CCCN2C1=O [PP2411]	A (a compound having 10 or more and less than 20 is denoted as A)	A (a compound having 10 or more and less than 20 is denoted as A)
115	0.25	CCO[C@H](C)[C@@H]1NC(=O)[C@H](CC(C)C)N(C)C(=O)C[C@@H](C(=O)N(C)CC)N(C)C(=O)[C@H](C2CCCC2)N(C)C(=O)C2(CC(C)(C)C2)NC(=O)[C@@H]2C[C@H](C)CN2C(=O)[C@H](CCc2ccc(C(F)(F)F)c(OC)c2)NC(=O)CN(C)C(=O)[C@H](Cc2ccc(C)cc2)N2CC/C=C\C[C@@H](C2=O)N(C)C(=O)CN(C)C1=O [PP2413]	A (a compound having 10 or more and less than 20 is denoted as A)	A (a compound having 10 or more and less than 20 is denoted as A)
9.8	0.33	CCO[C@H](C)[C@@H]1NC(=O)[C@H](CC(C)C)N(C)C(=O)C[C@@H](C(=O)N(C)CC)N(C)C(=O)[C@H](C2CCCC2)N(C)C(=O)C2(CC(C)(C)C2)NC(=O)[C@@H]2C[C@H](C)CN2C(=O)[C@H](CCc2cc(F)c(C(F)(F)F)c(F)c2)NC(=O)CN(C)C(=O)[C@H](Cc2ccc(C)cc2)N2CC/C=C\C[C@@H](C2=O)N(C)C(=O)CN(C)C1=O [PP2414]	A (a compound having 10 or more and less than 20 is denoted as A)	A (a compound having 10 or more and less than 20 is denoted as A)
15.9	0.3	CCCO[C@H](C)[C@@H]1NC(=O)[C@H](CC(C)C)N(C)C(=O)C[C@@H](C(=O)N(C)CC)N(C)C(=O)[C@H](C2CCCC2)N(C)C(=O)C2(CC(C)(C)C2)NC(=O)[C@@H]2C[C@H](C)CN2C(=O)[C@H](CCc2cc(F)c(C(F)(F)F)c(F)c2)NC(=O)CN(C)C(=O)[C@H](Cc2ccc(C)cc2)N2CC/C=C\C[C@@H](C2=O)N(C)C(=O)CN(C)C1=O [PP2417]	A (a compound having 10 or more and less than 20 is denoted as A)	A (a compound having 10 or more and less than 20 is denoted as A)
117	0.46	CCOC[C@H]1C(=O)N[C@@H]([C@@H](C)OCC)C(=O)N(C)CC(=O)N(C)[C@H]2C/C=C\CCN(C2=O)[C@@H](Cc2ccc(C)cc2)C(=O)N(C)CC(=O)N[C@@H](CCc2cc(F)c(C(F)(F)F)c(F)c2)C(=O)N2C[C@@H](C)C[C@H]2C(=O)NC2(CC(C)(C)C2)C(=O)N(C)[C@@H](C2CCCC2)C(=O)N(C)[C@H](C(=O)N(C)CC)CC(=O)N1C [PP2422]	A (a compound having 10 or more and less than 20 is denoted as A)	A (a compound having 10 or more and less than 20 is denoted as A)
50.9	0.37	CCCOC[C@H]1C(=O)N[C@@H]([C@@H](C)OCC)C(=O)N(C)CC(=O)N(C)[C@H]2C/C=C\CCN(C2=O)[C@@H](Cc2ccc(C)cc2)C(=O)N(C)CC(=O)N[C@@H](CCc2cc(F)c(C(F)(F)F)c(F)c2)C(=O)N2C[C@@H](C)C[C@H]2C(=O)NC2(CC(C)(C)C2)C(=O)N(C)[C@@H](C2CCCC2)C(=O)N(C)[C@H](C(=O)N(C)CC)CC(=O)N1C [PP2424]	A (a compound having 10 or more and less than 20 is denoted as A)	A (a compound having 10 or more and less than 20 is denoted as A)
